The source of these data is patent US20150307938A1, “METHOD TO IDENTIFY A NOVEL CLASS OF IMMUNOLOGIC ADJUVANTS” (Lancell, L.L.C., priority 2011, published 2015).

For the test, the system named is PR8. Also on record: species or system mice. Particulars: mouse, in vivo.

`CCCCOC(=O)c1ccccc1C(=O)OCCCC` [DBP, dibutylphthalate]: the “survival of a lethal dose of virus” value is “mice survived a lethal dose of virus”.
